Reference: ChEMBL document CHEMBL5441451, “ASAP - In vitro cytotoxicity” (2024)
Where “and” joins values, the source holds several entries; their conditions need not be identical. Equal values may be shown once.

Tests used:
[1] = Functional metabolic assay to measure dose dependent changes in cell viability from drug treatment in Vero E6/TMPRSS2 cells (cotreated with P-gp inhibitor, Elacridar). Cells are treated with antiviral candidates that have been serially diluted. Cytotoxicity is reported via measuring absorbance and analysis of MTT/MTS assays in uninfected cells. The assay has been performed by Icahn School of Medicine at Mount Sinai.; type: toxicity, cell-based, VeroE6/TMPRSS2; conditions: chlorocebus sabaeus
[2] = (§1) Functional metabolic assay to measure dose dependent changes in cell viability from drug treatment in iPSC-Pneumocyte cells. The cells are seeded then incubated in MTT (3-[4,5-dimethylthiazol-2-yl]-2,5- diphenyltetrazolium bromide) labeling reagent and SDS. Absorbance is measured at 560 and 750 nm and analyzed by Gen5 software. The assay has been performed by Icahn School of Medicine at Mount Sinai.; type: toxicity, cell-based; conditions: human; for CC50: iPSC-Pneumocyte cells; for CC10: pneumocyte
[3] = as §1, with “in HeLa-ACE2” for “in iPSC-Pneumocyte”, “cells. Hela-ACE2” for “cells. The”, “seeded prior to drug treatment,” for “seeded”, “bromide) labelling” for “bromide) labeling”; type: toxicity, cell-based; conditions: human
[4] = system: Middle East respiratory syndrome-related coronavirus; test: microbe, parasite or virus in culture; type: functional, Chlorocebus sabaeus; conditions: Vero 76

SMILES | CC50 ([1]; Vero E6/TMPRSS2 cells, with Elacridar (P-gp inhibitor), concentration not stated) [µM] | CC10 ([1]; veroe6/tmprss2) [µM] | CC50 [2] [µM] | CC10 [2] [µM] | CC10 ([3]; hela-ace2) | CC50 ([3]; hela-ace2) [µM] | CC50 ([3]; HeLa-ACE2 cells) [µM] | CC50 [4] [µM]
CC(C)[C@@H](Nc1ncnc2[nH]c(-c3cnn(C)c3C#N)cc12)c1ccc2c(n1)OCCO2 | > 5 | > 5 | 6.02 | 5.176 | > 50 µM and > 20 µM | > 50 |  | 
CNC(=O)c1c[nH]c2ncnc(N[C@H](c3ccc4c(c3)S(=O)(=O)CCC4)C(C)C)c12 |  |  | > 50 | > 50 | > 20 µM |  | > 20 | > 32
